Experimental data reported in ChEMBL document CHEMBL1159156, “Design, synthesis and biological activity of some 4-DAMP- related compounds” (Bioorg Med Chem Lett, 1995).
pKi: −log10 of the molar value.

Columns and labels:
[1] = biological target: T1, Muscarinic acetylcholine receptor M2 (Rattus norvegicus, UniProt P10980); assay: Compound was tested for inhibiting [3H]N-Methyl-scopolamine Binding to Muscarinic receptor (M2) in Rat Heart
T1 sequence (P10980 whole entry): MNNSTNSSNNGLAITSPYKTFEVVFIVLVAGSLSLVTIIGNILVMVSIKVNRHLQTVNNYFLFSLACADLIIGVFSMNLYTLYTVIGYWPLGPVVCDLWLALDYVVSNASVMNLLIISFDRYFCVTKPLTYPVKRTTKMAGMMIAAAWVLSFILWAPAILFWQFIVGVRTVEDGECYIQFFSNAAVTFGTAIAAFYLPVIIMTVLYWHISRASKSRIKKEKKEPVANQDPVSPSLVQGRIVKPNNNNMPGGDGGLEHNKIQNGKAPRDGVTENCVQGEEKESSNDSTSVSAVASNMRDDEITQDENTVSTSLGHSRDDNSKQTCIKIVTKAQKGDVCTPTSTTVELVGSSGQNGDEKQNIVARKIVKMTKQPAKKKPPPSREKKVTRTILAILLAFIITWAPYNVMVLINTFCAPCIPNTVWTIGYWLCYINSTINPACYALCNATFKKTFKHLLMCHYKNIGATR

[2] = biological target: T2, Muscarinic acetylcholine receptor M1 (Rattus norvegicus, UniProt P08482); assay: Compound was tested for inhibiting [3H]pirenzepine Binding to Muscarinic receptor (M1) receptor in Rat Cortex Homogenates
T2 sequence (P08482 whole entry): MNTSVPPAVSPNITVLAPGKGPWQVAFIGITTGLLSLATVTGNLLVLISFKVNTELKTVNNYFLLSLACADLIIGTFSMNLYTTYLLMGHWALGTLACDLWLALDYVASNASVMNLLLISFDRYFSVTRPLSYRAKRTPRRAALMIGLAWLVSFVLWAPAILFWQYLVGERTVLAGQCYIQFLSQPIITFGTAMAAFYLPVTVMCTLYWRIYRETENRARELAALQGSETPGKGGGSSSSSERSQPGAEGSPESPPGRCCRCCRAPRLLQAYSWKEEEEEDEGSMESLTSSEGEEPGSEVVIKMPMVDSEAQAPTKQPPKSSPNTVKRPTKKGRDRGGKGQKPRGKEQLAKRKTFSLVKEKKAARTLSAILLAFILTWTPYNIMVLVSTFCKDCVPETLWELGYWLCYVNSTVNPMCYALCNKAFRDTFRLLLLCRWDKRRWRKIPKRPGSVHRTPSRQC

[3] = biological target: Muscarinic acetylcholine receptor M3 (Rattus norvegicus, UniProt P08483); assay: Compound was tested for inhibiting [3H]N-Methyl-scopolamine Binding to Muscarinic receptor (M3) in Rat Submaxillary Gland
Sequence of Muscarinic acetylcholine receptor M3 (Rattus norvegicus, UniProt P08483) (P08483 whole entry): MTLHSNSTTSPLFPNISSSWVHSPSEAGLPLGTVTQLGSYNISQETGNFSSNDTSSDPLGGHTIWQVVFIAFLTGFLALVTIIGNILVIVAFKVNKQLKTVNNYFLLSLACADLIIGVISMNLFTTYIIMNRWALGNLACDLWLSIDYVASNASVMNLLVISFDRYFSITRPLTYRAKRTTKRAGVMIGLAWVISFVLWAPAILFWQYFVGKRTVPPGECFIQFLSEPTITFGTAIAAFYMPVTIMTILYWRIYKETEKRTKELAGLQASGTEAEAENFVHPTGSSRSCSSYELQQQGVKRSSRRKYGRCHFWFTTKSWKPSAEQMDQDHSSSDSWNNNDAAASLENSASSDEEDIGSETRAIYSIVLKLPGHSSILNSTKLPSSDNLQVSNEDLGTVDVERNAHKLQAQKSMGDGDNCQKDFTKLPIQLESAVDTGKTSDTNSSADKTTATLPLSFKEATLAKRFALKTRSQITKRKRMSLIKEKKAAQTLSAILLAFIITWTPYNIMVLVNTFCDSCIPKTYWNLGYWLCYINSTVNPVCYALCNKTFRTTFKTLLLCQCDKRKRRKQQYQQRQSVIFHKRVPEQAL

[4] = biological target: Muscarinic acetylcholine receptor M3 (Cavia porcellus, UniProt Q8VH26); assay: Evaluation of antagonistic affinity against muscarinic receptor (M3) in guinea pig ileum; assay type: functional, tissue-based; conditions: read-out: pA2 (converted)
Sequence of Muscarinic acetylcholine receptor M3 (Cavia porcellus, UniProt Q8VH26) (Q8VH26 whole entry): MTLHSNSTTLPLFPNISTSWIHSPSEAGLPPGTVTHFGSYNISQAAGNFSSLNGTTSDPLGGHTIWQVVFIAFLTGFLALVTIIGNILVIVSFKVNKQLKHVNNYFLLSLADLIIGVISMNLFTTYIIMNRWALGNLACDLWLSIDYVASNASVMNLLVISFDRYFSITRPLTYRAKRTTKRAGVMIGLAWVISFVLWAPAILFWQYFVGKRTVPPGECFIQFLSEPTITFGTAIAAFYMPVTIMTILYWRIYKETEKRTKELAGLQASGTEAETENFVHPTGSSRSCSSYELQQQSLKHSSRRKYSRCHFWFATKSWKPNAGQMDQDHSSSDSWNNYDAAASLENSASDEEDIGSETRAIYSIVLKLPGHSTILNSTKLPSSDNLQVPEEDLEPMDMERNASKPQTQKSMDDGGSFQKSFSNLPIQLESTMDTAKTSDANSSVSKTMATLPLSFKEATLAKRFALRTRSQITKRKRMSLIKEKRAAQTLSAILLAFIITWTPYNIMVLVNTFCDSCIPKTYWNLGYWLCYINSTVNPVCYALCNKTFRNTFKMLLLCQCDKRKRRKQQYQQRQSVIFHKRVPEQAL

[5] = biological target: Muscarinic acetylcholine receptor M2 (Cavia porcellus); assay: Evaluation of antagonistic affinity against muscarinic receptor (M2) in guinea pig left atria; conditions: read-out: pA2 (converted)
[6] = biological target: T3, Muscarinic acetylcholine receptor M4 (Homo sapiens, UniProt P08173); assay: Compound was tested for binding affinity against Muscarinic acetylcholine receptor M4 in NG 108-15 cell homogenates; assay type: cell-based
T3 sequence (P08173 whole entry): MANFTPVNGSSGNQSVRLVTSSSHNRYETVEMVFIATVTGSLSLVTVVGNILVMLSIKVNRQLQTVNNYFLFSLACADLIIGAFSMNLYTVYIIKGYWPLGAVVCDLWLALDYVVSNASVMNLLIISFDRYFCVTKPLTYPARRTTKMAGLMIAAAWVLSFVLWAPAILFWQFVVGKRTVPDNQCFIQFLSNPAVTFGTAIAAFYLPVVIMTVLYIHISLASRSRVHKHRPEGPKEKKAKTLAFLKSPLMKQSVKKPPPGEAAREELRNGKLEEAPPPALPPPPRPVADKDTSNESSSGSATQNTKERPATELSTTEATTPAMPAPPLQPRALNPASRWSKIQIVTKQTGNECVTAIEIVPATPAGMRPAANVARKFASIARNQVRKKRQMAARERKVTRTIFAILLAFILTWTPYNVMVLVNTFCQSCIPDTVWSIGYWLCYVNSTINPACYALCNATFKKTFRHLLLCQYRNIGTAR

Structure (SMILES) | pKi [1] | pKi [2] | pKi [3] | Kb [4] [nM] | Kb [5] [nM] | pKi [6]
C[N+]1(C)CCC2(CC1)OC(=O)C(c1ccccc1)(c1ccccc1)O2 | 8.56 | 8.30 | 8.53 | 0.933 | 1.23 | –
C[N+]1(C)C2CCC1CC1(C2)OC(=O)C(c2ccccc2)(c2ccccc2)O1 (stereo in doubt; 4a) | – | 9.40 | 7.98 | 3.63 | – | 8.33
C[N+]1(C)C2CCC1CC1(C2)OC(=O)C(c2ccccc2)(c2ccccc2)O1 (stereo in doubt; 4b) | – | 9.10 | 7.30 | 20.9 | – | 8.36
C[N+]1(C)CCC(OC(=O)C(c2ccccc2)c2ccccc2)CC1 [4-DAMP] | – | 9.23 | – | – | – | –
